Reference: article PMC13274462, “Growth of Corynebacterium glutamicum on 5-oxo-L-proline (pyroglutamate) as a carbon and nitrogen source requires the PxpR-controlled pxpTABC genes” (Applied and Environmental Microbiology, 2026)

Biological target: T1, PxpR (Corynebacterium glutamicum, UniProt Q8NRP0)
T1 construct: gene Cgl1008; PxpR protein with a C-terminal Strep-tag-II (PxpR-Strep)
T1 sequence (Q8NRP0 11-227): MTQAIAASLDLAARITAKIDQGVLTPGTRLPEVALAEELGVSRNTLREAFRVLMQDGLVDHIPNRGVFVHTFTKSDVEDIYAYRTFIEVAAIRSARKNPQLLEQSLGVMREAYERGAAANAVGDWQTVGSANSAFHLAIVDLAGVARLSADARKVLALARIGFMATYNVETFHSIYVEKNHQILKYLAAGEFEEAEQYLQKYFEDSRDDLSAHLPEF
Assay: isothermal titration calorimetry (ITC) with purified PxpR-Strep, […]°C, pH […]
Assay type: binding

## O=C1CC[C@@H](C(=O)O)N1 [5-OP, 5-oxo-L-proline]
  Kd: 726 ± 23 nM
